# Measurements from PubChem BioAssay (NCI).
#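 GI50 is the concentration that inhibits growth by half. TGI: total growth inhibition.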
# What was measured:
# Assay in all cases: growth of human tumour cells (NCI), 384-well format
# KM12 colon = test system: KM12 colon
# NCI-H460 NSCLC = test system: NCI-H460 NSCLC
# PC-3 prostate = test system: PC-3 prostate
# CAKI-1 renal = test system: CAKI-1 renal
# SR leukemia = test system: SR leukemia
# K-562 leukemia = test system: K-562 leukemia
# HOP-92 NSCLC = test system: HOP-92 NSCLC
# UACC-257 melanoma = test system: UACC-257 melanoma
# NCI-H522 lung = test system: NCI-H522 lung
# SF-539 CNS = test system: SF-539 CNS
# RPMI-8226 leukemia = test system: RPMI-8226 leukemia
# ACHN renal = test system: ACHN renal
# NCI-H23 lung = test system: NCI-H23 lung
# NCI/ADR-RES ovarian = test system: NCI/ADR-RES ovarian
# HCC-2998 colon = test system: HCC-2998 colon
# DU-145 prostate = test system: DU-145 prostate
# MDA-MB-468 breast = test system: MDA-MB-468 breast
# SK-MEL-5 melanoma = test system: SK-MEL-5 melanoma
# HCT-116 colon = test system: HCT-116 colon
# U251 glioblastoma = test system: U251 glioblastoma
# OVCAR-3 ovarian = test system: OVCAR-3 ovarian
# UO-31 renal = test system: UO-31 renal
# MDA-MB-231 breast = test system: MDA-MB-231 breast
# MDA-MB-435 melanoma = test system: MDA-MB-435 melanoma
# A549 NSCLC = test system: A549 NSCLC
# A498 renal = test system: A498 renal
# SK-MEL-2 melanoma = test system: SK-MEL-2 melanoma
# BT-549 breast = test system: BT-549 breast
# LOX IMVI melanoma = test system: LOX IMVI melanoma
# SK-OV-3 ovarian = test system: SK-OV-3 ovarian
# SNB-19 CNS = test system: SNB-19 CNS
# OVCAR-5 ovarian = test system: OVCAR-5 ovarian
# HL-60(TB) leukemia = test system: HL-60(TB) leukemia
# HCT-15 colon = test system: HCT-15 colon
# M14 melanoma = test system: M14 melanoma
# MOLT-4 leukemia = test system: MOLT-4 leukemia
# 786-0 renal = test system: 786-0 renal
# RXF 393 renal = test system: RXF 393 renal
# HT29 colon = test system: HT29 colon
# UACC-62 melanoma = test system: UACC-62 melanoma
# OVCAR-4 ovarian = test system: OVCAR-4 ovarian
# NCI-H322M lung = test system: NCI-H322M lung
# SF-295 CNS = test system: SF-295 CNS
# MALME-3M melanoma = test system: MALME-3M melanoma
# COLO 205 colon = test system: COLO 205 colon
# SN12C renal = test system: SN12C renal
# OVCAR-8 ovarian = test system: OVCAR-8 ovarian
# HOP-62 NSCLC = test system: HOP-62 NSCLC
# TK-10 renal = test system: TK-10 renal
# CCRF-CEM leukemia = test system: CCRF-CEM leukemia
# NCI-H226 lung = test system: NCI-H226 lung
# SW-620 colon = test system: SW-620 colon
# SK-MEL-28 melanoma = test system: SK-MEL-28 melanoma
# SF-268 CNS = test system: SF-268 CNS
# MCF7 breast = test system: MCF7 breast
# IGROV1 ovarian = test system: IGROV1 ovarian
compound,measurement,setting,value
Cc1c(-c2c(F)cc(C(N)=O)c3[nH]c4c(c23)CC[C@H](C(C)(C)O)C4)cccc1-n1c(=O)c2cccc(F)c2n(C)c1=O,GI50,KM12 colon,0.284 µM
same,TGI,KM12 colon,1.54 µM
same,GI50,NCI-H460 NSCLC,2.9 µM
same,TGI,NCI-H460 NSCLC,13.1 µM
same,GI50,PC-3 prostate,3.85 µM
same,TGI,PC-3 prostate,17 µM
same,GI50,CAKI-1 renal,2.21 µM
same,TGI,CAKI-1 renal,5.72 µM
same,GI50,SR leukemia,1.66 µM
same,TGI,SR leukemia,3.04 µM
same,GI50,K-562 leukemia,4.66 µM
same,TGI,K-562 leukemia,> 100 µM
same,GI50,HOP-92 NSCLC,1.45 µM
same,TGI,HOP-92 NSCLC,4.8 µM
same,GI50,UACC-257 melanoma,2.29 µM
same,TGI,UACC-257 melanoma,10.7 µM
same,GI50,NCI-H522 lung,1.89 µM
same,TGI,NCI-H522 lung,6.56 µM
same,GI50,SF-539 CNS,8 µM
same,TGI,SF-539 CNS,20.9 µM
same,GI50,RPMI-8226 leukemia,1.32 µM
same,TGI,RPMI-8226 leukemia,2.7 µM
same,GI50,ACHN renal,1.97 µM
same,TGI,ACHN renal,5.73 µM
same,GI50,NCI-H23 lung,2.67 µM
same,TGI,NCI-H23 lung,10.9 µM
same,GI50,NCI/ADR-RES ovarian,3.55 µM
same,TGI,NCI/ADR-RES ovarian,13 µM
same,GI50,HCC-2998 colon,2.33 µM
same,TGI,HCC-2998 colon,6.99 µM
same,GI50,DU-145 prostate,4.85 µM
same,TGI,DU-145 prostate,23 µM
same,GI50,MDA-MB-468 breast,2.86 µM
same,TGI,MDA-MB-468 breast,5.86 µM
same,GI50,SK-MEL-5 melanoma,4.31 µM
same,TGI,SK-MEL-5 melanoma,14.1 µM
same,GI50,HCT-116 colon,3.14 µM
same,TGI,HCT-116 colon,12.1 µM
same,GI50,U251 glioblastoma,5.78 µM
same,TGI,U251 glioblastoma,19.8 µM
same,GI50,OVCAR-3 ovarian,2.54 µM
same,TGI,OVCAR-3 ovarian,6.39 µM
same,GI50,UO-31 renal,2 µM
same,TGI,UO-31 renal,5.39 µM
same,GI50,MDA-MB-231 breast,3.59 µM
same,TGI,MDA-MB-231 breast,14.5 µM
same,GI50,MDA-MB-435 melanoma,4.13 µM
same,TGI,MDA-MB-435 melanoma,15.1 µM
same,GI50,A549 NSCLC,2.43 µM
same,TGI,A549 NSCLC,9.34 µM
same,GI50,A498 renal,3.25 µM
same,TGI,A498 renal,9.41 µM
same,GI50,SK-MEL-2 melanoma,2.18 µM
same,TGI,SK-MEL-2 melanoma,7.9 µM
same,GI50,BT-549 breast,5.1 µM
same,TGI,BT-549 breast,15.7 µM
same,GI50,LOX IMVI melanoma,5.98 µM
same,TGI,LOX IMVI melanoma,16.2 µM
same,GI50,SK-OV-3 ovarian,2.26 µM
same,TGI,SK-OV-3 ovarian,8.77 µM
same,GI50,SNB-19 CNS,9.94 µM
same,TGI,SNB-19 CNS,24.5 µM
same,GI50,OVCAR-5 ovarian,2.56 µM
same,TGI,OVCAR-5 ovarian,11.3 µM
same,GI50,HL-60(TB) leukemia,1.12 µM
same,TGI,HL-60(TB) leukemia,2.34 µM
same,GI50,HCT-15 colon,3.7 µM
same,TGI,HCT-15 colon,13.6 µM
same,GI50,M14 melanoma,2.2 µM
same,TGI,M14 melanoma,10.1 µM
same,GI50,MOLT-4 leukemia,1.53 µM
same,TGI,MOLT-4 leukemia,2.93 µM
same,GI50,786-0 renal,3.27 µM
same,TGI,786-0 renal,14.5 µM
same,GI50,RXF 393 renal,1.96 µM
same,TGI,RXF 393 renal,4.07 µM
same,GI50,HT29 colon,1.47 µM
same,TGI,HT29 colon,11.8 µM
same,GI50,UACC-62 melanoma,3.6 µM
same,TGI,UACC-62 melanoma,15.7 µM
same,GI50,OVCAR-4 ovarian,2.8 µM
same,TGI,OVCAR-4 ovarian,7.38 µM
same,GI50,NCI-H322M lung,4.08 µM
same,TGI,NCI-H322M lung,23.6 µM
same,GI50,SF-295 CNS,3.42 µM
same,TGI,SF-295 CNS,12 µM
same,GI50,MALME-3M melanoma,1.79 µM
same,TGI,MALME-3M melanoma,6.95 µM
same,GI50,COLO 205 colon,1.61 µM
same,TGI,COLO 205 colon,4.46 µM
same,GI50,SN12C renal,3.26 µM
same,TGI,SN12C renal,13.1 µM
same,GI50,OVCAR-8 ovarian,4.62 µM
same,TGI,OVCAR-8 ovarian,22.9 µM
same,GI50,HOP-62 NSCLC,8.36 µM
same,TGI,HOP-62 NSCLC,26.5 µM
same,GI50,TK-10 renal,2.16 µM
same,TGI,TK-10 renal,4.76 µM
same,GI50,CCRF-CEM leukemia,3.33 µM
same,TGI,CCRF-CEM leukemia,9.78 µM
same,GI50,NCI-H226 lung,2.56 µM
same,TGI,NCI-H226 lung,10.4 µM
same,GI50,SW-620 colon,2.94 µM
same,TGI,SW-620 colon,13.5 µM
same,GI50,SK-MEL-28 melanoma,2.87 µM
same,TGI,SK-MEL-28 melanoma,13.8 µM
same,GI50,SF-268 CNS,5.58 µM
same,TGI,SF-268 CNS,21.4 µM
same,GI50,MCF7 breast,1.29 µM
same,TGI,MCF7 breast,3.56 µM
same,GI50,IGROV1 ovarian,3.17 µM
same,TGI,IGROV1 ovarian,9.53 µM
